Source: US9428456B2, “1-[m-carboxamido(hetero)aryl-methyl]-heterocyclyl-carboxamide derivatives” (Actelion Pharmaceuticals Ltd., priority 2012, dated 2016)

Target: CXCR7 (Homo sapiens (Human), UniProt P25106)
Assay: PathHunter CHO-K1 CXCR7 b-arrestin assay (agonistic activity)
Format: cell-based
Details: PathHunter CHO-K1 CXCR7 b-arrestin cell line
How it was run: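 CHO-K1 cells co-expressing ProLink-tagged CXCR7 and EA-fused β-arrestin 2 (enzyme fragment complementation); compounds added in HBSS/20 mM HEPES/0.2% BSA after 3–4 h in OPTIMEM, 90 min at 37 °C. Chemiluminescent β-gal signal read after 1 h detection at room temperature; EC50 reported as geometric mean of several measurements.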

Sequence of CXCR7 (P25106 whole entry): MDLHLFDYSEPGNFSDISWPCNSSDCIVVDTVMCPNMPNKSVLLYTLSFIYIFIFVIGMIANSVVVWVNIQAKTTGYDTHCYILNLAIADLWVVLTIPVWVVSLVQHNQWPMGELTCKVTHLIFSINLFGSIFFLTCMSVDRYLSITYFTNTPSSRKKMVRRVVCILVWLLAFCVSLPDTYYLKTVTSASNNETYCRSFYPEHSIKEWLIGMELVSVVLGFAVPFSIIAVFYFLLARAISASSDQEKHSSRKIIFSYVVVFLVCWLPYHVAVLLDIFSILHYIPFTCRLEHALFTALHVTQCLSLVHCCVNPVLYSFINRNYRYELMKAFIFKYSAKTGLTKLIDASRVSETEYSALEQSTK
Sequence of CXCR7 (P32121 whole entry partner): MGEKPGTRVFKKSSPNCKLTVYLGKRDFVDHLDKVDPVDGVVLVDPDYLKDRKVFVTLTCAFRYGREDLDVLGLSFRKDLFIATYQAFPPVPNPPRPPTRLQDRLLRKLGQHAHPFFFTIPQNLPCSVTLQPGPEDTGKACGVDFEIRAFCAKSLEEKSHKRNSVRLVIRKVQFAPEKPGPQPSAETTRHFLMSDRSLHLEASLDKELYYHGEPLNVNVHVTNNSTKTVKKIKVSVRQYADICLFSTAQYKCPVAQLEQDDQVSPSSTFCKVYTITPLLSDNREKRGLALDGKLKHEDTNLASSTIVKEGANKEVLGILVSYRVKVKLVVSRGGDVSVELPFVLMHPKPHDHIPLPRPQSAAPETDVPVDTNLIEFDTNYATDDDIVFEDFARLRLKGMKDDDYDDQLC

Row | Compound | EC50
1 | O=C(Nc1cccc(CN2CCC(C(=O)NC3CCCCC3)CC2)c1)c1cncc(C(F)(F)F)c1 [Example 1.058] | 5 nM
2 | Cc1cncc(C(=O)Nc2cccc(CN3CCCC(C(=O)NC(C)(C)C)CC3)c2)c1 (racemic) [Example 1.290] | 49 nM
3 | Cc1cncc(C(=O)Nc2cccc(CN3CCC(C(=O)NC4CCCCC4)CC3)c2)c1 [Example 1.060] | 4 nM
4 | CC(C)(C)NC(=O)C1CCN(Cc2cccc(NC(=O)c3ccc4ncsc4c3)c2)CC1 [Example 1.353] | 3 nM
5 | O=C(Nc1cccc(CN2CCC(C(=O)NC3CCCCC3)CC2)c1)c1ccc(Cl)nc1 [Example 1.067] | 2 nM
6 | O=C(Cc1ccc(Cl)cc1)Nc1cccc(CN2CCC(C(=O)NC3CCCCC3)CC2)c1 [Example 1.037] | 34 nM
7 | O=C(Nc1cccc(CN2CCC(C(=O)NC3CCCCC3)CC2)c1)c1ccc(N2CCCC2)cn1 [Example 1.084] | 39 nM
8 | CCC(C)(C)NC(=O)C1CCN(Cc2cccc(NC(=O)c3ncc(Cl)cc3F)c2)CC1 [Example 1.343] | 1 nM
9 | CC(c1cccc(NC(=O)c2ccncc2Cl)c1)N1CCC(C(=O)NC2CCCCC2)CC1 (racemic) [Example 1.174] | 559 nM
10 | O=C(Nc1cccc(CN2CCC(C(=O)NC3CCCCC3)CC2)c1)c1ccsc1 [Example 1.012] | 4 nM
